Assay results as given in US20260055061A1, “HALOPHTHALIMIDE COMPOUNDS AND METHODS OF USE AGAINST TBI, INFLAMMATORY DISORDER, AUTOIMMUNE DISORDER, NEURODEGENERATIVE DISEASE OR VIRAL INFECTION” (The United States of America, as represented by the …, priority 2022, published 2026).
Entries after “also recorded” stand apart in the source; their conditions may differ.

Legend:
[1] = test system: LPS-induced nitrite in RAW 264.7 cells; assay: LPS-induced nitrite production in RAW 264.7 cells (Griess reagent / fluorometric kit); format: cell-based, mouse; conditions: for nitrite levels / nitrite level, % of vehicle control / nitrite inhibitory activity (comparison in words): 1 μM; for nitrite levels / nitrite level, % of vehicle control: LPS-challenged RAW 264.7 cells; for nitrite level, % of vehicle control: percentage of vehicle control value (control = 100%), mean ± S.E.M., n = 3; for nitrite inhibitory activity (comparison in words): tetrafluoro vs corresponding difluoro or stereoisomer; for LPS-induced nitrite in cell culture media (in words): 100-1000 nM; for concentration from which nitrite levels were significantly reduced: 100-1000 nM tested, vs LPS+Vehicle
Summary of the method: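 Nitrite in culture media of LPS-challenged RAW 264.7 cells measured as a stable surrogate for NO, using Griess reagent (sulfanilamide, then N-1-naphthylethylenediamine, 10 min each in the dark). Absorbance at 550 nm, with levels read against a nitrite standard curve ([…]) made in matching medium.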

[2] = test system: TNF-α; assay: LPS-induced TNF-α production in RAW 264.7 cells (ELISA); format: cell-based, mouse; conditions: for TNF-α level / TNF-α % Δ: 1 μM, LPS-challenged RAW 264.7 cells; for TNF-α % Δ: percentage of vehicle control value (control = 100%), mean ± S.E.M., n = 3; for LPS-induced TNF-α in cell culture media (in words): 100-1000 nM; for concentration from which TNF-α was significantly reduced: 100-1000 nM tested, vs LPS+Vehicle
Summary of the method: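 Sandwich ELISA of TNF-α secreted into the media of RAW 264.7 cultures, with a biotinylated detection antibody, avidin-HRP and TMB substrate. Absorbance read at 450 nm with 570 nm background subtraction. Levels interpolated from a TNF-α protein standard curve.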

[3] = test system: TNF-α; assay: LPS model of inflammation in rats: TNF-α in plasma and brain; format: in vivo, rat; conditions: for TNF-α plasma levels (in words): both doses (TFBP 16.25/32.5, TFNBP 14.33/28.66 mg/kg i.p.), 4 hr post LPS
Experimental: LPS model of inflammation in rats: Male Fischer 344 rats (Charles River Laboratories, Wilmington, MA, USA) (approx. 150 g weight) were randomly assigned across groups, and thereafter administered either vehicle (Veh), or TFBP or TFNBP. Two doses of TFBPs were evaluated: (TFBP: 16.25 mg/kg or 32.5 mg/kg, and for TFNBP: 14.33 mg/kg or 28.66 mg/kg), i.p. These compounds were suspended in 1% carboxymethyl cellulose (CMC) in saline (0.9%), and administered 60 min prior to either administration of LPS (1 mg/kg, Sigma, St Louis, MO, E. coli O55:B5 in saline (0.9%), 0.1 ml/kg i.p.) or of Vehicle (CMC in saline (0.9%) 0.1 ml/kg, i.p.). […] At 4 hr following LPS or Veh, animals were euthanized, and plasma and brain (hippocampus) tissue samples were collected and stored at −80° C. Brain samples were later sonicated in a Tris-based lysis buffer (Mesoscale Discovery, Gaithersburg, MD, USA) with protease/phosphatase inhibitors (Halt™ Protease and Phosphatase Inhibitor Cocktail, ThermoFisher Scientific, Asheville, NC, USA, diluted to 3×). Next, brain samples were centrifuged (10,000 g, 10 min, 4° C.), and protein concentrations were determined by Bicinchoninic acid assay (BCA, ThermoFisher Scientific, Asheville, NC, USA). An ELISA for TNF-α, IL-6, IL-1B, IL-10 and IL-13 was later performed following the manufacturer's protocol (Mesoscale Discovery).
Four hours after LPS injection, animals were euthanized, and blood and brain tissue were collected and placed on wet ice. Plasma was quickly separated from blood by centrifuge at 10,000 g. 5 min, 4° C., and brain regions of cortex, hippocampus and the rest of brain were dissected into separate vials on wet ice, then stored at −80° C. Brain tissues were then sonicated in a TRIS based lysis buffer (Mesoscale Discovery) with 3× protease/phosphatase inhibitors (Halt™ Protease and Phosphatase Inhibitor Cocktail, Thermo Fisher Scientific), were then centrifuged at 10,000 g, 10 min, 4° C., and protein concentrations were measured by Bicinchoninic acid assay (BCA, Thermo Fisher Scientific). Rat plasma, cerebral cortical and hippocampal samples were then analyzed by multi-proinflammatory cytokines ELISA (V-PLEX Proinflammatory Panel 2 Rat Kit, Mesoscale Discovery), following the manufacturer's protocol. The processes and dosages of the experiment of drug treatment effects on LPS rat model was made on the basis of our previous studies.

[4] = high dose (TFBP 32.5, TFNBP 28.66 mg/kg i.p.)
[5] = low dose (TFBP 16.25, TFNBP 14.33 mg/kg i.p.)

Row | Compound | Nitrite, % Change versus Control (± s.e.m.) ([1]; 10 uM, LPS-activated RAW 264.7 cells) | drop in LPS-induced nitrite production ([1]; 10 μM, stimulated RAW cells) | LPS-induced elevation in nitrite levels (in words) ([1]; 0.6-60 μM, LPS 60 ng/mL, 24 h) | nitrite levels (in words) ([1]; six-compound pomalidomide grouping, RAW cell assay, FIGS. 12-13) | LPS-induced elevation in TNF-α levels (in words) ([2]; 0.6-60 μM, LPS 60 ng/mL, 24 h) | TNF-α in plasma and brain ([3]; 29.57 mg/kg i.p., LPS rat model) | nitrite levels [1] | nitrite level, % of vehicle control [1] | nitrite inhibitory activity (comparison in words) [1] | LPS-induced nitrite in cell culture media (in words) [1] | concentration from which nitrite levels were significantly reduced [1] | TNF-α level [2] | TNF-α % Δ [2] | LPS-induced TNF-α in cell culture media (in words) [2] | concentration from which TNF-α was significantly reduced [2] | TNF-α plasma levels (in words) [3] | Cerebral cortex TNF-α, change vs. LPS group [3, 4] | Cerebral cortex TNF-α, change vs. LPS group [3, 5] | TNF-α plasma levels, decline vs. LPS alone group ([3]; higher dose (TFBP 32.5 mg/kg i.p.), 4 hr post LPS 1 mg/kg)
1 | Nc1ccc(F)c2c1C(=S)N(C1CCC(=S)NC1=O)C2=O (stereo not shown) [Compound 30, 4-amino-7-fluoro-2-(2-oxo-6-thioxopiperidin-3-yl)-3-thioxoisoindolin-1-one] | 35.3 ± 3.0% | 65% | significantly lowered | superior | significantly lowered | significantly reduce | – | – | – | – | – | – | – | – | – | – | – | – | –
2 | O=C1c2c(F)c(F)c(F)c(F)c2C(=O)N1C1CC2CCC1C2 (stereo not drawn) [Compound 16, 2-Endo-(bicyclo[2.2.1]heptan-2-yl)-4,5,6,7-tetrafluoroisoindoline-1,3-dione] | – | – | – | – | – | – | 25-36% | 36 ± 4% | more potent nitrite inhibitory activity | significantly decreased; also recorded: effective in decreasing levels of nitrite and TNF-α | ≥ 300 nM | 55-74% | 74 ± 3% | significantly decreased; also recorded: effective in decreasing levels of nitrite and TNF-α | ≥ 300 nM | reduced this increase | −41.7% | only effectively did so at the higher tested dose | –
3 | CC1(C)[C@@H]2CC[C@@]1(C)[C@@H](N1C(=O)c3c(F)c(F)c(F)c(F)c3C1=O)C2 [Compound 14, 4,5,6,7-Tetrafluoro-2-((1R,2S,4R)-1,7,7-trimethylbicyclo[2.2.1]heptan-2-yl) isoindoline-1,3-dione] | – | – | – | – | – | – | 25-36% | 26 ± 3% | more potent nitrite inhibitory activity | significantly decreased | ≥ 100 nM | 55-74% | 55 ± 1% | significantly decreased | ≥ 600 nM | reduced this increase | −58.3% | −41.7% | −76%
